Data reported in patent US9133148B2, “Carbamate compounds and of making and using same” (Abide Therapeutics, Inc., priority 2012, dated 2015).
Each block holds one compound with its values, some of them ahead of it.

Tests used:
Format in all cases: biochemical
[1] = target: Human MAGL (Homo sapiens (Human), UniProt Q99685); assay: Competitive ABPP with recombinant human MAGL expressed in HEK293T cells; conditions: hMAGL in HEK293T cell lysates
Protocol: (§1) Proteomes (mouse brain membrane fraction or cell lysates) ([…], 1.0 mg/mL total protein concentration) were preincubated with varying concentrations of inhibitors at 37° C. After 30 min, FP-Rh (1.0 μL, 50 μM in DMSO) was added and the mixture was incubated for another 30 min at 37° C. Reactions were quenched with SDS loading buffer (50 μL—4×) and run on SDS-PAGE.
Recombinant Expression of Human MAGL in HEK293T Cells.
Cell lysates were diluted with mock proteomes for use in competitive ABPP experiments.

[2] = target: T1, ABHD6 (Mus musculus (Mouse), UniProt Q8R2Y0); assay: In vitro competitive activity-based protein profiling (FP-Rh), mouse ABHD6; conditions: mouse brain membrane proteome, competitive ABPP
Protocol: (§2) In Vitro Competitive Activity-Based Protein Profiling.
as §1

[3] = target: T2, FAAH (Mus musculus (Mouse), UniProt O08914); assay: In vitro competitive activity-based protein profiling (FP-Rh), mouse FAAH; conditions: mouse brain membrane proteome, competitive ABPP
Protocol: as §2, §1

[4] = target: T3, MAGL (Mus musculus (Mouse), UniProt O35678); assay: In vitro competitive activity-based protein profiling (FP-Rh), mouse MAGL; conditions: mouse brain membrane proteome, competitive ABPP
Protocol: as §2, §1

[5] = target: T1, ABHD6; assay: Competitive ABPP, % inhibition at 1 uM, ABHD6
Protocol: as §2, §1

[6] = target: T3, MAGL; assay: Competitive ABPP, % inhibition at 1 uM, MAGL
Protocol: as §2, §1

[7] = target: T2, FAAH; assay: Competitive ABPP, % inhibition at 1 uM, FAAH
Protocol: as §2
as §1, with “SDS-PAGE. Following gel imaging, serine hydrolase activity was determined by measuring fluorescent intensity of gel bands corresponding to MAGL, ABHD6 and FAAH using ImageJ 1.43u software.” for “SDS-PAGE.”

T3 sequence (O35678 whole entry): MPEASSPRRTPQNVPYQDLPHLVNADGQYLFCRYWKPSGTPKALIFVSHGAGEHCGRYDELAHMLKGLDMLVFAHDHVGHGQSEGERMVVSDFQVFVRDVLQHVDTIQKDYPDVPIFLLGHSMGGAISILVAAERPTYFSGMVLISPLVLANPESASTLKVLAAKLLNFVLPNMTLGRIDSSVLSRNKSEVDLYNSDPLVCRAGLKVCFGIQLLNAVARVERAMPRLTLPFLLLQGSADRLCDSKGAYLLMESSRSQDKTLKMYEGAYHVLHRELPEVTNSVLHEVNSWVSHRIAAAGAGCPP
T2 sequence (O08914 whole entry): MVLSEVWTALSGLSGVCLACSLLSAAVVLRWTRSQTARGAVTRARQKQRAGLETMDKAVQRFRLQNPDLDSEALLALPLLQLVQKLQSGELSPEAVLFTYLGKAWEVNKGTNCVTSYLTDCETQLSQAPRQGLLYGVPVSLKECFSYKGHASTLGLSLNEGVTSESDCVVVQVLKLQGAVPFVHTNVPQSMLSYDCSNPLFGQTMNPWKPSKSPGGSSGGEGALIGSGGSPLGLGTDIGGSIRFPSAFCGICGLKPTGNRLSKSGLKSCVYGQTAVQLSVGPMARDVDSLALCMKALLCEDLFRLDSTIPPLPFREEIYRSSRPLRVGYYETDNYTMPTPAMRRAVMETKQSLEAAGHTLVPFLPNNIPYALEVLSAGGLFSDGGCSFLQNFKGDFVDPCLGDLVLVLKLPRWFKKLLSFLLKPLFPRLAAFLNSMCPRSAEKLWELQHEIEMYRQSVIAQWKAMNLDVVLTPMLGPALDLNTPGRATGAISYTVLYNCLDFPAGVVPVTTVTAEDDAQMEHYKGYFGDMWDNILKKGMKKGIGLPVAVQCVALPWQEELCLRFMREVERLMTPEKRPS
Human MAGL, sequence (Q99685 whole entry): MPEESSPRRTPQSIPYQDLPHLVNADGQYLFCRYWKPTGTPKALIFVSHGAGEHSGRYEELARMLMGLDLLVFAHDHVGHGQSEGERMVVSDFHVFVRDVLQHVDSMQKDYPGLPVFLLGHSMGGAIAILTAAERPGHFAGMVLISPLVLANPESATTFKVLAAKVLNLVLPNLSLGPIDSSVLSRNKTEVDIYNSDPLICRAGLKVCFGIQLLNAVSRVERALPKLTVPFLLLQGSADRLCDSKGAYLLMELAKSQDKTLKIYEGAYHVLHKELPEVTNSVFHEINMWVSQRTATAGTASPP
T1 sequence (Q8R2Y0 whole entry): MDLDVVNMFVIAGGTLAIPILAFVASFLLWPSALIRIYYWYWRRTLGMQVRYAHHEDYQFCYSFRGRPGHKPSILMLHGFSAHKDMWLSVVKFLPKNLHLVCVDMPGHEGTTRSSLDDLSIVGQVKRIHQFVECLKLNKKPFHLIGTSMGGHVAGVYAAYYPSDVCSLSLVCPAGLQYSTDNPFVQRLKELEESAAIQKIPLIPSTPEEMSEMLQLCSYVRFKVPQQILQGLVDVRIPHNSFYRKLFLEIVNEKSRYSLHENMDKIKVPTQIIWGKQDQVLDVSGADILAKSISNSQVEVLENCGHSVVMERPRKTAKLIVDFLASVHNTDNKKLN

- IC50 [1]: > 1000 nM
- IC50 [2]: > 1000 nM
- IC50 [3]: > 10000 nM
- IC50 [4]: > 1000 nM
SMILES: O=C(OC(C(F)(F)F)C(F)(F)F)N1CCN(C(=O)c2ccc(-c3ccccc3)cc2)CC1 [Example 3c, 1,1,1,3,3,3-hexafluoropropan-2-yl 4-([1,1′-biphenyl]-4-carbonyl)-piperazine-1-carboxylate]

- IC50 [1]: > 1000 nM
- IC50 [2]: > 1000 nM
- IC50 [3]: > 10000 nM
- IC50 [4]: > 1000 nM
SMILES: CC(=O)Nc1ccc(S(=O)(=O)N2CCN(C(=O)OC(C(F)(F)F)C(F)(F)F)CC2)cc1 [Example 4e, 1,1,1,3,3,3-hexafluoropropan-2-yl 4-((4-acetamidophenyl)sulfonyl)-piperazine-1-carboxylate]

- inhibition at 1 µM [5]: 25 to 75%
- inhibition at 1 µM [6]: 25 to 75%
- inhibition at 1 µM [7]: < 25%
SMILES: Cc1cc(-c2ccc(CN3CCN(C(=O)OC(C(F)(F)F)C(F)(F)F)CC3)c(C)c2)cc(C)n1 [Example 11m, 1,1,1,3,3,3-hexafluoropropan-2-yl 4-[[4-(2,6-dimethylpyridin-4-yl)-2-methylphenyl]methyl]piperazine-1-carboxylate]

- inhibition at 1 µM [5]: < 25%
- inhibition at 1 µM [6]: 25 to 75%
- inhibition at 1 µM [7]: < 25%
SMILES: CC(C)c1cc(-c2ccccc2)ccc1CN1CCN(C(=O)OC(C(F)(F)F)C(F)(F)F)CC1 [Example 9at, 1,1,1,3,3,3-hexafluoropropan-2-yl 4-((3-isopropyl-[1,1′-biphenyl]-4-yl)methyl)piperazine-1-carboxylate]

- inhibition at 1 µM [5]: > 75%
- inhibition at 1 µM [6]: > 75%
- inhibition at 1 µM [7]: < 25%
SMILES: Cc1cc(-c2ccncc2C)ccc1CN1CCN(C(=O)OC(C(F)(F)F)C(F)(F)F)CC1 [Example 11n, 1,1,1,3,3,3-hexafluoropropan-2-yl 4-[[2-methyl-4-(3-methylpyridin-4-yl)phenyl]methyl]piperazine-1-carboxylate]

- inhibition at 1 µM [5]: 25 to 75%
- inhibition at 1 µM [6]: 25 to 75%
- inhibition at 1 µM [7]: < 25%
SMILES: CC1CN(C(=O)OC(C(F)(F)F)C(F)(F)F)CCN1C(c1ccc(Cl)cc1)c1ccc(Cl)cc1 (stereo not shown) [Example 2h, 1,1,1,3,3,3-hexafluoropropan-2-yl 4-[bis(4-chlorophenyl)methyl]-3-methylpiperazine-1-carboxylate]

- inhibition at 1 µM [5]: 25 to 75%
- inhibition at 1 µM [6]: 25 to 75%
- inhibition at 1 µM [7]: < 25%
SMILES: Cc1cc(-c2ccc(CN3CCN(C(=O)OC(C(F)(F)F)C(F)(F)F)CC3)c(C)c2)ccn1 [Example 11i, 1,1,1,3,3,3-hexafluoropropan-2-yl 4-[[2-methyl-4-(2-methylpyridin-4-yl)phenyl]methyl]piperazine-1-carboxylate]

- inhibition at 1 µM [5]: 25 to 75%
- inhibition at 1 µM [6]: 25 to 75%
- inhibition at 1 µM [7]: < 25%
SMILES: Cc1cc(-c2cccnc2C)ccc1CN1CCN(C(=O)OC(C(F)(F)F)C(F)(F)F)CC1 [Example 11s, 1,1,1,3,3,3-hexafluoropropan-2-yl 4-[[2-methyl-4-(2-methylpyridin-3-yl)phenyl]methyl]piperazine-1-carboxylate]

- inhibition at 1 µM [5]: 25 to 75%
- inhibition at 1 µM [6]: > 75%
- inhibition at 1 µM [7]: < 25%
SMILES: Cc1cccc(-c2ccc(CN3CCN(C(=O)OC(C(F)(F)F)C(F)(F)F)CC3)c(F)c2)n1 [Example 11ac, 1,1,1,3,3,3-hexafluoropropan-2-yl 4-[[2-fluoro-4-(6-methylpyridin-2-yl)phenyl]methyl]piperazine-1-carboxylate]

- inhibition at 1 µM [5]: 25 to 75%
- inhibition at 1 µM [6]: > 75%
- inhibition at 1 µM [7]: < 25%
SMILES: Cc1nc(CN2CCN(C(=O)OC(C(F)(F)F)C(F)(F)F)CC2)ccc1-c1cccc(F)c1 [Example 11w, 1,1,1,3,3,3-hexafluoropropan-2-yl 4-[[5-(3-fluorophenyl)-6-methylpyridin-2-yl]methyl]piperazine-1-carboxylate]

- inhibition at 1 µM [5]: > 75%
- inhibition at 1 µM [6]: > 75%
- inhibition at 1 µM [7]: < 25%
SMILES: Cc1nc(CN2CCN(C(=O)OC(C(F)(F)F)C(F)(F)F)CC2)ccc1-c1ccccc1F [Example 11v, 1,1,1,3,3,3-hexafluoropropan-2-yl 4-[[5-(2-fluorophenyl)-6-methyl-pyridin-2-yl]methyl]piperazine-1-carboxylate]

The next lines start with the compound.

SMILES: CC(C)c1cc(C(C)C)c(S(=O)(=O)N2CCN(C(=O)OC(C(F)(F)F)C(F)(F)F)CC2)c(C(C)C)c1 [Example 4f, 1,1,1,3,3,3-hexafluoropropan-2-yl 4-((2,4,6-triisopropylphenyl)-sulfonyl)piperazine-1-carboxylate]
- IC50 [1]: > 1000 nM
- IC50 [2]: > 1000 nM
- IC50 [3]: > 10000 nM
- IC50 [4]: > 1000 nM

SMILES: Cc1nc(-c2cccc(CN(C)C(=O)OC(C(F)(F)F)C(F)(F)F)c2)no1 [Example 3j, 1,1,1,3,3,3-hexafluoropropan-2-yl methyl(3-(5-methyl-1,2,4-oxadiazol-3-yl)benzyl)carbamate]
- IC50 [1]: < 100 nM
- IC50 [2]: 100 to 1000 nM
- IC50 [3]: > 10000 nM
- IC50 [4]: 100 to 1000 nM

SMILES: O=C(OC(C(F)(F)F)C(F)(F)F)N1CCN(Cc2ccc(-c3ccccc3)cc2)CC1 [Example 3b, 1,1,1,3,3,3-hexafluoropropan-2-yl 4-([1,1′-biphenyl]-4-ylmethyl)-piperazine-1-carboxylate]
- IC50 [1]: < 100 nM
- IC50 [2]: > 1000 nM
- IC50 [3]: > 10000 nM
- IC50 [4]: 100 to 1000 nM

SMILES: COc1ccc(N2CCN(C(=O)OC(C(F)(F)F)C(F)(F)F)CC2)cc1 [Example 3e, 1,1,1,3,3,3-hexafluoropropan-2-yl 4-(4-methoxyphenyl)piperazine-1-carboxylate]
- IC50 [1]: 100 to 1000 nM
- IC50 [2]: 100 to 1000 nM
- IC50 [3]: > 10000 nM
- IC50 [4]: > 1000 nM

SMILES: O=C(OC(C(F)(F)F)C(F)(F)F)N1CCN(S(=O)(=O)c2ccc3ccccc3c2)CC1 [Example 4h, 1,1,1,3,3,3-hexafluoropropan-2-yl 4-(naphthalen-2-ylsulfonyl)-piperazine-1-carboxylate]
- IC50 [1]: > 1000 nM
- IC50 [2]: > 1000 nM
- IC50 [3]: > 10000 nM
- IC50 [4]: < 100 nM

SMILES: Cc1cccc(-c2ccc(CN3CCN(C(=O)OC(C(F)(F)F)C(F)(F)F)CC3)c(C)c2)c1 [Example 11h, 1,1,1,3,3,3-hexafluoropropan-2-yl 4-[[2-methyl-4-(3-methylphenyl)phenyl]methyl]piperazine-1-carboxylate]
- inhibition at 1 µM [5]: < 25%
- inhibition at 1 µM [6]: 25 to 75%
- inhibition at 1 µM [7]: < 25%

SMILES: C[C@@H]1CN(Cc2ccc(N3CCOCC3)cc2Cl)CCN1C(=O)OC(C(F)(F)F)C(F)(F)F [Example 9am, 1,1,1,3,3,3-hexafluoropropan-2-yl(2R)-4-[[2-chloro-4-(morpholin-4-yl)phenyl]methyl]-2-methylpiperazine-1-carboxylate]
- inhibition at 1 µM [5]: < 25%
- inhibition at 1 µM [6]: < 25%
- inhibition at 1 µM [7]: < 25%

SMILES: Cc1ncccc1-c1ccc(CN2CCN(C(=O)OC(C(F)(F)F)C(F)(F)F)CC2)c(F)c1 [Example 11t, 1,1,1,3,3,3-hexafluoropropan-2-yl 4-[[2-fluoro-4-(2-methylpyridin-3-yl)phenyl]methyl]piperazine-1-carboxylate]
- inhibition at 1 µM [5]: 25 to 75%
- inhibition at 1 µM [6]: > 75%
- inhibition at 1 µM [7]: < 25%

SMILES: O=C(OC(C(F)(F)F)C(F)(F)F)N1CCN(Cc2ccc(-c3cccc(F)c3)cc2F)CC1 [Example 11o, 1,1,1,3,3,3-hexafluoropropan-2-yl 4-[[2-fluoro-4-(3-fluorophenyl)phenyl]methyl]piperazine-1-carboxylate]
- inhibition at 1 µM [5]: 25 to 75%
- inhibition at 1 µM [6]: > 75%
- inhibition at 1 µM [7]: < 25%

SMILES: O=C(OC(C(F)(F)F)C(F)(F)F)N1CCN(Cc2ccc(C(=O)N3CCCC3)cc2Cl)CC1 [Example 9bd, 1,1,1,3,3,3-hexafluoropropan-2-yl 4-(2-chloro-4-(pyrrolidine-1-carbonyl)benzyl)piperazine-1-carboxylate]
- inhibition at 1 µM [5]: 25 to 75%
- inhibition at 1 µM [6]: 25 to 75%
- inhibition at 1 µM [7]: < 25%

SMILES: C[C@@H]1CN(Cc2ccc(N3CCOCC3)cc2C(F)(F)F)CCN1C(=O)OC(C(F)(F)F)C(F)(F)F [Example 9l, 1,1,1,3,3,3-hexafluoropropan-2-yl(2R)-2-methyl-4-[[4-(morpholin-4-yl)-2-(trifluoromethyl)phenyl]methyl]piperazine-1-carboxylate]
- inhibition at 1 µM [5]: < 25%
- inhibition at 1 µM [6]: < 25%
- inhibition at 1 µM [7]: < 25%

SMILES: Cc1nc(-c2cccc(F)c2)ccc1CN1CCN(C(=O)OC(C(F)(F)F)C(F)(F)F)CC1 [Example 11e, 1,1,1,3,3,3-hexafluoropropan-2-yl 4-[[6-(3-fluorophenyl)-2-methylpyridin-3-yl]methyl]piperazine-1-carboxylate]
- inhibition at 1 µM [5]: 25 to 75%
- inhibition at 1 µM [6]: > 75%
- inhibition at 1 µM [7]: < 25%

SMILES: Cc1cccc(-c2ccc(CN3CCN(C(=O)OC(C(F)(F)F)C(F)(F)F)CC3)c(C)n2)c1 [Example 11d, 1,1,1,3,3,3-hexafluoropropan-2-yl 4-[[2-methyl-6-(3-methylphenyl)pyridin-3-yl]methyl]piperazine-1-carboxylate]
- inhibition at 1 µM [5]: 25 to 75%
- inhibition at 1 µM [6]: > 75%
- inhibition at 1 µM [7]: < 25%
